Bacteriostatic activity and IC50 data for three compounds are collected here from US4156725A (priority 1972, dated 1979).

For test [1], the system named is Cl. perfringens. The settings on record: British Pat. No. 1303171 and application No. 36289/70; cited from earlier work.
Test [2] concerns Derm. dermatonomous. The settings on record: British Pat. No. 1303171 and application No. 36289/70; cited from earlier work.
Test [3] deals with hydroxymethyldihydropteridine pyrophosphokinase (HMPPS) (Escherichia coli, UniProt P26281). Briefly: Inhibition of the enzymes of dihydropteroate biosynthesis (ATP-γ-P32 transfer / dihydropteroate-C14 formation). The settings on record: E. coli enzyme extract; tests of Example K; read-out: concentration giving 50% inhibition. Type of test: biochemical. As for the experimental part: The inhibiting activity against HMPPS of a selected compound of formula (I) can, for instance, be tested by monitoring the transfer of the terminal phosphate of adenosinetriphosphate ATP-γ-p^32 to `dihydropteridine`. […] Such inhibition may, for instance, be easily and simply carried out by incubating an extract of E. coli with pAb-7-C^14, ATP, Mg and `dihydropteridine`. The formation of the dihydropteroate-C^14 can be quantitatively assayed after separating the unreacted pAB substrate, for instance by chromatography. […] Preferably the value is 25 μM or less, such as in the range between 2 to 12 μM. Generally a value below 7 μM is desirable. […]
Sequence of hydroxymethyldihydropteridine pyrophosphokinase (HMPPS) (P26281 whole entry): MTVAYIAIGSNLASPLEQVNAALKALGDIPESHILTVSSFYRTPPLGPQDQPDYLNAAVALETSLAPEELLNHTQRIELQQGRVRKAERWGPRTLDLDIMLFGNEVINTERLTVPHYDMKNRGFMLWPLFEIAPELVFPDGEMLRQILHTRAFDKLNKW
(a) An assay for HMPPS was developed in which the transfer of the terminal phosphate of ATP-γ-P^32 to Pt could be monitored and correlated with the amount of inhibition of HMPPS by the compound under test. […]
Tubes 1 to 9 containing the amounts of components shown in the Table, were filled up to 200 μl with distilled water, incubated for 60 minutes at 37° C. and then chilled on ice. […] The charcoal and the filter were then radioactively counted. […]
(b) The activity of the test compound of formula (I) against `synthetase` was determined as follows, by monitoring the formation of dihydropteroate C^14. […]

Each structure is given as a SMILES string.

For the compound `CC1=Nc2c(O)nc(N)nc2NC1(C)C` [2-amino-4-hydroxy-6-methyl-7,7-dimethyl-7,8-dihydropteridine], the bacteriostatic activity entry in test [1] and in test [2] was “particularly effective” each time.
Take `CC1(C)Nc2nc(N)nc(O)c2N=C1CO` [2-amino-4-hydroxy-6-hydroxymethyl-7,7-dimethyl-7,8-dihydropteridine]: the bacteriostatic activity entry in test [1] and in test [2] was “particularly effective” throughout.
In the case of `CC1(C)Nc2nc(N)nc(O)c2N=C1COc1ccccc1` [A, 2-Amino-4-hydroxy-6-phenoxymethyl-7,7-dimethyl-7,8-dihydropteridine], the IC50 in test [3] worked out at 17 µM.
